# Results reported in US20120214862A1, “MODULATION OF FACTOR 7 EXPRESSION” (ISIS Pharmaceuticals, Inc., priority 2009, published 2012).
# In the oligonucleotide strings, read from the 5' end, every base follows the letter of its sugar. An asterisk marks phosphorothioate; unmarked linkages are phosphodiester. Other units and linkages are bracketed, terminal groups are in braces. A string of capitals states the bases alone. e = 2'-O-(2-methoxyethyl) (MOE); [5mC] = 5-methylcytosine; d = 2'-deoxy (DNA)
# System: human Factor 7 mRNA
# Assay: Antisense inhibition of human Factor 7 mRNA in HepB3 cells, lipofectin, 50 nM, real-time RT-PCR
# Type: cell-based
# Details: Example 1; HepB3 cells, lipofectin, 50 nM, ~24 h, relative to untreated control cells
# Outline: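 4,000 cells/well; ~24 h exposure; RNA isolated; probe set RTS 2927; normalised to RIBOGREEN® total RNA; % inhibition vs untreated.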
row,Substance,% Inhibition (human Factor 7 mRNA)
1,407931 (antisense e[5mC]*eT*eT*e[5mC]*eA*dG*dA*dG*dG*dA*d[5mC]*dA*dG*d[5mC]*dA*e[5mC]*eA*e[5mC]*eA*eT) [compound 407931],56%
2,407932 (antisense eG*eA*eA*e[5mC]*e[5mC]*dA*dG*dA*dA*dA*dA*dG*dT*dG*dA*eG*eA*eG*e[5mC]*eT) [compound 407932],55%
3,407933 (antisense eT*eG*eA*eT*eA*dA*dT*dG*dG*dA*dT*dA*dA*dG*dA*eA*e[5mC]*e[5mC]*eA*eG) [compound 407933],58%
4,407934 (antisense e[5mC]*eT*eG*eA*eA*dG*dT*dG*dA*dA*dG*dA*dT*dG*dA*eT*eA*eA*eT*eG) [compound 407934],45%
5,407937 (antisense eG*eA*eA*eG*eG*dG*dA*dG*dA*dA*dA*dT*dA*d[5mC]*dA*eT*eT*eT*eG*eG) [compound 407937],59%
6,407938 (antisense e[5mC]*eA*e[5mC]*e[5mC]*e[5mC]*dA*dG*d[5mC]*dG*dA*dA*dG*dG*dG*dA*eG*eA*eA*eA*eT) [compound 407938],60%
7,407940 (antisense eT*eG*eT*eG*eA*dA*dG*d[5mC]*dT*dG*dG*dG*dA*dA*dG*e[5mC]*eA*eG*eG*eT) [compound 407940],62%
8,407941 (antisense eG*eA*eG*eA*e[5mC]*dG*d[5mC]*dA*dG*d[5mC]*d[5mC]*dG*dT*dT*dT*eA*eT*eT*eG*eT) [compound 407941],65%
9,407942 (antisense e[5mC]*eA*e[5mC]*eA*eG*dG*dT*dG*dT*dG*d[5mC]*dG*dG*dA*dG*eG*eA*eG*eA*e[5mC]) [compound 407942],41%
10,407943 (antisense eG*e[5mC]*eA*eG*eG*d[5mC]*dA*d[5mC]*d[5mC]*dA*d[5mC]*dA*dG*dG*dT*eG*eT*eG*e[5mC]*eG) [compound 407943],34%
11,407944 (antisense e[5mC]*e[5mC]*eA*eG*eT*dG*dG*dG*dT*dG*dG*d[5mC]*dA*dG*dG*e[5mC]*eA*e[5mC]*e[5mC]*eA) [compound 407944],59%
12,407945 (antisense eA*eA*eT*e[5mC]*eA*dT*dG*dG*dG*d[5mC]*dA*dA*d[5mC]*d[5mC]*d[5mC]*eA*eG*eT*eG*eG) [compound 407945],56%
13,407946 (antisense eT*e[5mC]*e[5mC]*eA*eA*dA*dA*dA*dT*dG*dA*dA*dT*d[5mC]*dA*eT*eG*eG*eG*e[5mC]) [compound 407946],5%
14,407950 (antisense eA*eG*e[5mC]*eT*eT*d[5mC]*d[5mC]*dA*dT*dG*dT*dG*dA*dG*dG*eG*eT*eT*e[5mC]*eA) [compound 407950],58%
15,407951 (antisense eA*eA*e[5mC]*eA*eG*d[5mC]*dT*dT*dT*dT*dG*dT*dT*dT*dT*eT*eA*eA*eA*eA) [compound 407951],0%
16,407952 (antisense eG*eG*eA*eT*e[5mC]*d[5mC]*dT*dG*dG*dG*dA*dG*d[5mC]*dT*dA*e[5mC]*eA*eG*e[5mC]*e[5mC]) [compound 407952],41%
17,407953 (antisense eA*e[5mC]*eA*eT*e[5mC]*d[5mC]*dA*dA*dT*dT*d[5mC]*d[5mC]*dA*d[5mC]*dA*eG*eG*eA*eT*e[5mC]) [compound 407953],20%
18,407954 (antisense e[5mC]*eA*eG*eG*eG*dA*dG*dA*dG*dA*dA*d[5mC]*dA*dT*d[5mC]*e[5mC]*eA*eA*eT*eT) [compound 407954],39%
19,407955 (antisense eT*eG*eT*eG*eA*dA*dA*dT*dA*dT*d[5mC]*dA*dT*dT*dG*eA*e[5mC]*eA*eA*eG) [compound 407955],3%
